Values joined by “and” are separate entries in the source; they are usually repeats but may differ in a detail not shown here. Equal values may be shown once. Read-outs that look alike come from different tables or passages of the source.
Columns and labels:
[1] = test system: THP-1 and KASUMI-1 cells; test: Combination with daunorubicin in AML cells; type: cell-based; details: 25 nM compound and 100 nM DNR; 48 hours
[2] = test system: global 5hmC level; test: Global 5hmC level (5hmC labeling and dot-blotting); type: cell-based; details: for global 5hmC levels: MONOMAC-6 cells
Experimental: (§1) FIG. 1. […] Cell viability was analyzed by MTS 48 hours post-treatment. […] TET1 expression levels were detected by qPCR 48 hrs post-treatment. […] TET1 expression levels (e) and cell viability (f) were detected 24 hrs post-treatment. *, P<0.05, two-tailed t-test. MM6, MONOMAC-6. Error bar indicates SD of triplicate experiments.
The 5-hydroxymethylcytosine (5-hmC) labeling reactions and 5hmC dot blotting were performed as described previously (Huang, H., et al. TET1 plays an essential oncogenic role in MLL-rearranged leukemia. Proc Natl Acad Sci USA 110, 11994-11999 (2013)). Briefly, 3 jig sonicated genomic DNA (100-500 bp) fragments were incubated in solution containing 50 mM Hepes buffer (pH 7.9), 25 mM MgCl2, 100 jiM UDP-6-N3-Glc, and 1 jiM beta-glucosyltransferase (f3-GT) for 1 hr at 37° C. The CLICK was performed with addition of 150 jiM dibenzocyclooctyne modified biotin into the purified DNA solution, and the reaction mixture was incubated for 2 hrs at 37° C. Six hundred nanograms of labeled genomic DNA samples were spotted on an Amersham Hybond-N+ membrane (GE Healthcare, Little Chalfont, UK). DNA was fixed to the membrane by Stratagene UV Stratalinker 2400 (auto-crosslink). The membrane was then blocked with 5% BSA and incubated with Avidin-HRP (1:40,000) (Bio-Rad, Hercules, Calif.), and then visualized by enhanced chemiluminescence.

[3] = test system: TET1; test: TET1 expression by qPCR in AML cell lines; type: cell-based
Experimental: as §1
Total RNA was extracted with the miRNeasy extraction kit (Qiagen) and was used as template for quantitative RT-PCR (qPCR) analysis.

[4] = test system: MONOMAC-6 cells; test: MTS cell viability, MONOMAC-6; type: cell-based; details: 48 hrs
Experimental: In order to identify chemical compounds that may target TET1 signaling, the drug-sensitivity/gene expression database of a total of 20,602 chemical compounds in the NCI-60 collection of cancer cell samples was searched.
All cell lines were authenticated through STR profiling yearly.
These experiments were conducted as described previously (Jiang, X., et al., Blockade of miR-150 Maturation by MLL-Fusion/MYC/LIN-28 Is Required for MLL-Associated Leukemia, Cancer Cell 22:524-35 (2012); Li, Z., et al., miR-196b directly targets both HOXA9/MEIS1 oncogenes and FAS tumour suppressor in MLL-rearranged leukaemia, Nat Commun 2:688 (2012)) with ApoLive-Glo Multiplex Assay Kit, or CellTiter 96 AQueous Non-Radioactive Cell Proliferation Assay Kit (Promega, Madison, Wis.).

[5] = test system: NB4 cells; test: MTS cell viability, TET1-low control cell line; type: cell-based; details: up to 500 nM, 48 hrs
Experimental: as §1
MONOMAC-6, THP-1, KOCL-48, KASUMI-1, ML-2 and NB4 cells were purchased from ATCC (Manassas, Va.), and cultured as described previously (Jiang, X., et al. Blockade of miR-150 Maturation by MLL-Fusion/MYC/LIN-28 Is Required for MLL-Associated Leukemia. Cancer Cell 22, 524-535 (2012); Li, Z., et al. miR-196b directly targets both HOXA9/MEIS1 oncogenes and FAS tumour suppressor in MLL-rearranged leukaemia. (Li, Z., et al., miR-196b directly targets both HOXA9/MEISV oncogenes and FAS tumour suppressor in MLL-rearranged leukaemia, Nat Commun 2:688 (2012)). All cell lines were tested for mycoplasma contamination yearly using a PCR Mycoplasma Test Kit (PromoKine) and were proven to be mycoplasma negative. All cell lines were authenticated through STR profiling yearly. […]

[6] = test system: AE9a-AML; test: AML-ETO9a (AE9a) AML secondary BMT mouse model; type: in vivo, mice; details: for median survival: 2.5 mg/kg i.p. once per day for 10 days, control 46 days
Experimental: FIG. 2. […] The secondary BMT recipient mice were transplanted with leukemic BM blast cells collected from primary MLL-AF9 AML mice. […] Kaplan-Meier curves are shown. The P values were determined by log-rank test. (b) Wright-Giemsa staining of mouse peripheral blood (PB) and BM, or hematoxylin and eosin (H&E) staining of mouse spleen and liver of the treated or control leukemic mice. (c,d) Tet1/2/3 gene expression levels (c) or Tet1 protein level (d) in BM blast cells of the treated or control leukemic mice. *, P<0.05, two-tailed t-test. Error bar indicates SD of triplicate experiments. […] The secondary BMT recipient mice were transplanted with leukemic BM blast cells collected from the primary AE9a-AML mice. […] Kaplan-Meier curves are shown. The P values were determined by log-rank test.
Secondary mouse BMT was carried out as described previously. […] For the “5+3” treatment, AraC (Cytarabine, Bedford Laboratories) and DNR (Daunorubicin, Sigma-Aldrich) were reconstituted with PBS, filtered, and stored in aliquots at −20° C. The “5+3” therapy regimen consists of five consecutive daily doses of 50 mg/kg AraC along with 3 mg/kg DNR daily during the first three days of treatment. Drugs were delivered by tail vein and intraperitoneal injection. Weights were taken daily during treatment and doses were recalculated to ensure the mice received a consistent dose of 50 mg/kg AraC and 3 mg/kg DNR every treatment.

[7] = Maximum tolerated dose and median lethal dose; type: in vivo

In the case of `COc1cc(C(c2cc3c(cc2O)OCO3)N2CCCC2)cc(OC)c1OC` (centres unmarked) [NSC-370284, 6-(1-Pyrrolidinyl(3,4,5-trimethoxyphenyl)methyl)-1,3-benzodioxol-5-ol], the “combined effect with DNR on inhibiting viability” value [1] is reported as “works synergistically”, the “global 5hmC level” value ([2]; 300 nM, THP-1 and MONOMAC-6 cells) is reported as “significantly repressed” and the “global 5hmC levels” value [2] is reported as “significantly reduced”. For the same molecule, the TET1 transcription ([3]; 25 nM, 24 hours, MONOMAC-6, THP-1 and KOCL-48 cells) was “significant down-regulation”, the “level of TET1 expression” value ([3]; TET1-high AML cells, 300 nM, qPCR 48 hrs) was “significantly repressed” and the IC50 ([4]; Homo sapiens, MONO-MAC-6, MONOMAC-6 cells, unit inferred, read-out: IC50 MMC6) was 0.385 nM. For the same molecule, the “inhibition of viability of NB4 cells” value [5] was “no significant inhibition”, the median survival [6] was 122 days and 114 days and the LD50 ([7]; C57BL/6, mouse, in vivo, ip, C57BL/6, I.P., read-out: LD50) was ~123 mg/kg. For the same molecule, the MTD ([7]; C57BL/6, mouse, in vivo, ip, mice, I.P., read-out: maximum tolerated dose) was 65 to 85.6 mg/kg, the “Number of Death” value ([7]; I.P. 65 mg/kg, 10 exposed) was 0 and the “Number of Death” value ([7]; I.P. 85.6 mg/kg, 10 exposed) was 1. The “Number of Death” value ([7]; I.P. 113.5 mg/kg, 10 exposed) was 3, the “Number of Death” value ([7]; I.P. 150 mg/kg, 10 exposed) was 6 and the “Number of Death” value ([7]; I.P. 200 mg/kg, 10 exposed) was 10.

In the case of `CC(C)(C)c1cc(C(c2cc3c(cc2O)OCO3)N2CCOCC2)cc(C(C)(C)C)c1O` (centres unmarked) [UC-514321, 6-{[4-Hydroxy-3,5-bis(2-methyl-2-propanyl)phenyl](4-morpholinyl)methyl}-1,3-benzodioxol-5-ol], the “combined effect with DNR on inhibiting viability” value [1] is reported as “works synergistically”, the “global 5hmC levels” value [2] is reported as “significantly reduced” and the “expression of TET1, TET2, TET3” value ([3]; MONOMAC-6 cells, 500 nM, 48 hrs) is reported as “significantly repressed expression of TET1, but not TET2 or TET3”. The “MONOMAC-6 cell viability among 30 analogues” value ([4]; MTS) was “most significantly repressed”, the “inhibition of viability of NB4 cells” value [5] was “no inhibitory effect” and the median survival [6] was 160 days. The “prolongation of median survival” value ([6]; versus control, 2.5 mg/kg i.p. 10 days) was “over 3 folds”, the MTD ([7]; C57BL/6, mouse, in vivo, ip) was 65 to 85.6 mg/kg and the “Number of Death” value ([7]; C57BL/6, mouse, in vivo, ip, 65 mg/kg) was 0. The “Number of Death” value ([7]; C57BL/6, mouse, in vivo, ip, 85.6 mg/kg) was 1, the “Number of Death” value ([7]; C57BL/6, mouse, in vivo, ip, 113.5 mg/kg) was 2 and the “Number of Death” value ([7]; C57BL/6, mouse, in vivo, ip, 150 mg/kg) was 7. For the same molecule, the “Number of Death” value ([7]; C57BL/6, mouse, in vivo, ip, 200 mg/kg) was 10 and the LD50 ([7]; C57BL/6, mouse, in vivo, ip, LD50) was ~123 mg/kg.

Source: patent US11311513B2, “Methods, agents, and compositions for the treatment of acute myeloid leukemia” (UNIVERSITY OF CINCINNATI, priority 2017, dated 2022)
